Source: ChEMBL document CHEMBL1201862, “PubChem BioAssay data set” (2004)
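These data come from cells grown in 96-well plates and exposed to compound for 48 hours at five concentrations. Abbreviation: GI50, concentration required for 50% inhibition of growth.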 Calls of active or inactive are those of the source. Rule as the data show it: active = GI50 up to about 1.1 µM and inactive = higher.

Columns and labels:
Assay in all cases: growth of human tumour cells (NCI), 48 h
ACHN = tested on: ACHN
EKVX = tested on: EKVX
HCT-116 = tested on: HCT-116
HL-60 = tested on: HL-60
HOP-62 = tested on: HOP-62
HT-29 = tested on: HT-29
IGROV-1 = tested on: IGROV-1
KM12 = tested on: KM12
M14 = tested on: M14
MDA-MB-231 = tested on: MDA-MB-231
MDA-MB-435 = tested on: MDA-MB-435
MDA-N = tested on: MDA-N
NCI-H23 = tested on: NCI-H23
OVCAR-8 = tested on: OVCAR-8
RPMI-8226 = tested on: RPMI-8226
SF-268 = tested on: SF-268
SK-MEL-28 = tested on: SK-MEL-28
SK-MEL-2 = tested on: SK-MEL-2
SW-620 = tested on: SW-620
T47D = tested on: T47D

Row | Compound | GI50 (ACHN) | GI50 (EKVX) | GI50 (HCT-116) | GI50 (HL-60) | GI50 (HOP-62) | GI50 (HT-29) | GI50 (IGROV-1) | GI50 (KM12) | GI50 (M14) | GI50 (MDA-MB-231) | GI50 (MDA-MB-435) | GI50 (MDA-N) | GI50 (NCI-H23) | GI50 (OVCAR-8) | GI50 (RPMI-8226) | GI50 (SF-268) | GI50 (SK-MEL-28) | GI50 (SK-MEL-2) | GI50 (SW-620) | GI50 (T47D)
1 | CS(=O)(=O)Nc1ccc(Nc2c3ccccc3nc3ccccc23)cc1 | 0.381 µM (active) | 4.55 µM (inactive) | 1.83 µM (inactive) | 0.389 µM (active) | 1.08 µM (active) | 4.4 µM (inactive) | 2.09 µM (inactive) | 3.13 µM (inactive) | 3.37 µM (inactive) | 3.56 µM (inactive) | 7.87 µM (inactive) | 5.94 µM (inactive) | 4.06 µM (inactive) | 2.77 µM (inactive) | 2.04 µM (inactive) | 2.78 µM (inactive) | 4.75 µM (inactive) | 5.16 µM (inactive) | 1.11 µM (active) | 2.41 µM (inactive)
2 | Cc1nc(=O)[nH]c(NCCNCCO)c1C(=O)Nc1cccc2cc3ccccc3cc12 | > 100 µM (inactive) | > 100 µM (inactive) | > 100 µM (inactive) | > 100 µM (inactive) | > 100 µM (inactive) | > 100 µM (inactive) | > 100 µM (inactive) | > 100 µM (inactive) | > 100 µM (inactive) | > 100 µM (inactive) | > 100 µM (inactive) | > 100 µM (inactive) | > 100 µM (inactive) | > 100 µM (inactive) | > 100 µM (inactive) | > 100 µM (inactive) | > 100 µM (inactive) | > 100 µM (inactive) | > 100 µM (inactive) | > 100 µM (inactive)
3 | CCN(CC)c1ccc(NC(=S)NN(C)C)cc1 | > 10 µM (inactive) | > 10 µM (inactive) | > 10 µM (inactive) | > 10 µM (inactive) | > 10 µM (inactive) | > 10 µM (inactive) | > 10 µM (inactive) | > 10 µM (inactive) | > 10 µM (inactive) | > 10 µM (inactive) | > 10 µM (inactive) | > 10 µM (inactive) | > 10 µM (inactive) | > 10 µM (inactive) | > 10 µM (inactive) | > 10 µM (inactive) | > 10 µM (inactive) | > 10 µM (inactive) | > 10 µM (inactive) | > 10 µM (inactive)
4 | CS(=O)(=O)c1nc(-c2cc3c(c(S(C)(=O)=O)n2)CCCC3)cc2c1CCCC2 | > 100 µM (inactive) | > 70.1 µM (inactive) | > 100 µM (inactive) | > 100 µM (inactive) | 21 µM (inactive) | > 100 µM (inactive) | > 21.8 µM (inactive) | > 100 µM (inactive) | > 100 µM (inactive) | 56.5 µM (inactive) | > 100 µM (inactive) | > 100 µM (inactive) | > 63 µM (inactive) | > 35.4 µM (inactive) | > 100 µM (inactive) | 11.8 µM (inactive) | > 100 µM (inactive) | > 54.3 µM (inactive) | > 100 µM (inactive) | > 100 µM (inactive)
5 | O=C(Nc1ccccc1)c1cc(S(=O)(=O)N2CCNC2=O)c(S)cc1Cl | > 100 µM (inactive) | > 100 µM (inactive) | > 100 µM (inactive) | > 100 µM (inactive) | > 100 µM (inactive) | > 100 µM (inactive) | > 100 µM (inactive) | > 100 µM (inactive) | > 100 µM (inactive) | > 100 µM (inactive) | > 100 µM (inactive) | > 100 µM (inactive) | > 100 µM (inactive) | > 100 µM (inactive) | > 100 µM (inactive) | > 100 µM (inactive) | > 100 µM (inactive) | > 100 µM (inactive) | > 100 µM (inactive) | > 100 µM (inactive)
6 | NC(=O)C(Nc1ccc(Cl)cc1)c1cc2cc(Br)ccc2nc1Cl (stereo not given) | > 50 µM (inactive) | 18.6 µM (inactive) | > 50 µM (inactive) | > 50 µM (inactive) | > 50 µM (inactive) | > 50 µM (inactive) | 17.6 µM (inactive) | > 50 µM (inactive) | > 50 µM (inactive) | > 50 µM (inactive) | 32.7 µM (inactive) | 43.7 µM (inactive) | > 50 µM (inactive) | > 50 µM (inactive) | 27.8 µM (inactive) | > 50 µM (inactive) | 48 µM (inactive) | > 50 µM (inactive) | 34.8 µM (inactive) | 37.2 µM (inactive)
7 | CCCCCCCC(CC(=O)NC(CO)C(=O)NC(CO)CC(C)C)OC(=O)CC(CCCCCCC)OC(=O)CC(CCCCCCC)OC1OC(C)C(O)C(OC2OC(C)C(O)C(O)C2O)C1O (stereo not given) | 12.2 µM (inactive) | 24.6 µM (inactive) | 7.53 µM (inactive) | 3.26 µM (inactive) | 18.9 µM (inactive) | 9.16 µM (inactive) | 12.6 µM (inactive) | 11.7 µM (inactive) | 5.05 µM (inactive) | 13.2 µM (inactive) | 6.52 µM (inactive) | 6.92 µM (inactive) | 14.3 µM (inactive) | 16.3 µM (inactive) | 2.37 µM (inactive) | 8.41 µM (inactive) | 7.94 µM (inactive) | 3.76 µM (inactive) | 15.7 µM (inactive) | 10.9 µM (inactive)
8 | CC1(c2ccccc2)CCN(C2CC2)CO1 (stereo not given) | 17.9 µM (inactive) | 20.1 µM (inactive) | 19.9 µM (inactive) | 45.2 µM (inactive) | > 100 µM (inactive) | 17.9 µM (inactive) | 19.6 µM (inactive) | 14.9 µM (inactive) | 16.9 µM (inactive) | 19.3 µM (inactive) | 49.9 µM (inactive) | 15.1 µM (inactive) | 33 µM (inactive) | 68.1 µM (inactive) | 19.8 µM (inactive) | 16.8 µM (inactive) | 19.7 µM (inactive) | > 100 µM (inactive) | 19 µM (inactive) | 17.3 µM (inactive)
9 | CCCCNC(=O)OCCN=c1c2ccccc2ccc2ccccc12 | > 100 µM (inactive) | > 100 µM (inactive) | > 100 µM (inactive) | > 100 µM (inactive) | > 100 µM (inactive) | > 100 µM (inactive) | > 100 µM (inactive) | > 100 µM (inactive) | > 100 µM (inactive) | > 100 µM (inactive) | > 100 µM (inactive) | > 100 µM (inactive) | > 100 µM (inactive) | > 100 µM (inactive) | > 100 µM (inactive) | > 100 µM (inactive) | > 100 µM (inactive) | > 100 µM (inactive) | > 100 µM (inactive) | 75 µM (inactive)
10 | O=C(O)[C@@H]1C[C@@H](O)CN1 | > 100 µM (inactive) | > 100 µM (inactive) | > 100 µM (inactive) | > 100 µM (inactive) | > 100 µM (inactive) | > 100 µM (inactive) | > 100 µM (inactive) | > 100 µM (inactive) | > 100 µM (inactive) | > 100 µM (inactive) | > 100 µM (inactive) | > 100 µM (inactive) | > 100 µM (inactive) | > 100 µM (inactive) | > 100 µM (inactive) | > 100 µM (inactive) | > 100 µM (inactive) | > 100 µM (inactive) | > 100 µM (inactive) | > 100 µM (inactive)
11 | Cc1cc(=O)oc2c(C)c(O)ccc12 | > 100 µM (inactive) | > 100 µM (inactive) | > 100 µM (inactive) | 48.6 µM (inactive) | > 100 µM (inactive) | > 100 µM (inactive) | > 100 µM (inactive) | > 100 µM (inactive) | > 100 µM (inactive) | > 100 µM (inactive) | > 100 µM (inactive) | > 100 µM (inactive) | > 100 µM (inactive) | > 100 µM (inactive) | 62.1 µM (inactive) | > 100 µM (inactive) | > 100 µM (inactive) | > 100 µM (inactive) | > 100 µM (inactive) | > 100 µM (inactive)
